US20250115571A1, “OXOPIPERAZINE DERIVATIVES” (Inthera Bioscience AG, priority 2017, published 2025)

Assays:
Test in all cases: 5-day cell proliferation assay (CTG)
Assay type in all cases: cell-based
786-O = conditions: Homo sapiens, 786-0, 120 h, Kidney
Protocol: (§1) For screening using a proliferation assay, the cells used were cultured at 37° C. with 5% CO2, except for those being cultured with L-15 medium (37° C. and 100% air, TABLE 7). Compound stock solutions (10 mM) were made in sterile water, aliquoted and stored at room temperature. Cisplatin was used as reference Control. Plastic consumables, culture media and supplements were purchased from well-known suppliers (TABLE 8).
(§2) Cell seeding (day −1). When necessary, cells were trypsinized using standard methods (see e.g. example 01). Cells were collected and resuspended in 5-6 mL of appropriate culture medium, counted and diluted to the needed density. Fifty-four μl (microliter) cells were seeded per well in a 384-well plate. Extra four wells per cell line were seeded on an additional plate for Day 0 reading (baseline cell density). Cells were incubated at 37° C. overnight.
(§3) Compound treatment and Day 0 reading (day 0). Tenfold final concentration of test compounds and Cisplatin were prepared in cell culture media (work dilutions). Six μl of work dilution solutions were dispensed into the corresponding wells in 384-well plates to bring the total volume up to 60 μl. Conditions were tested in triplicate. The plates were then incubated at 37° C. for five days. For the day 0 reading, 30 μl of CTG and 6 μl cell culture medium were added to the day 0 plates, contents mixed for 2 min on a plate shaker, and the plates incubated for 10 min at room temperature in the dark. Luminescence was recorded on an EnVision Multi Label Reader (2104-0010A, PerkinElmer, USA).
(§4) Endpoint CTG reading (day 5). The amounts of cells in the plates was determined by endpoint CTG-test. Thirty μl of CTG were added to the 60 μl of cell culture per well, contents mixed for 2 min on a plate shaker, and the plates incubated for 10 min at room temperature in the dark. Luminescence was recorded on an EnVision Multi Label Reader.
(§5) Data analysis. Fifty percent growth inhibition concentrations (GI50) were calculated based on percentage of control data (untreated cells) from each cell line (TABLE 5 (this example) and TABLE 6). Curves were fitted using a nonlinear regression model with a sigmoidal dose response. Examples of obtained curves are depicted in FIG. 2A-2F.

A549 = conditions: Homo sapiens, 120 h, A549, Lung
Protocol: as §1, §2, §3, §4, §5

AU565 = conditions: Homo sapiens, 120 h, AU565, Breast
Protocol: as §1, §2, §3, §4, §5

BT-20 = conditions: Homo sapiens, 120 h, BT-20, Breast
Protocol: as §1, §2, §3, §4, §5

BT474 = conditions: Homo sapiens, BT-474, 120 h, BT474, Breast
Protocol: as §1, §2, §3, §4, §5

Caco-2 = conditions: Homo sapiens, 120 h, Caco-2, Colorectal
Protocol: as §1, §2, §3, §4, §5

Caki 2 = conditions: Homo sapiens, 120 h, Caki 2, Kidney
Protocol: as §1, §2, §3, §4, §5

Daudi = conditions: Homo sapiens, 120 h, Lymphoma
Protocol: as §1, §2, §3, §4, §5

Granta-519 = conditions: Homo sapiens, 120 h, Granta-519, Lymphoma
Protocol: as §1, §2, §3, §4, §5

H4 = conditions: Homo sapiens, 120 h, H4, Brain/Nerves
Protocol: as §1, §2, §3, §4, §5

HCC4006 = conditions: Homo sapiens, 120 h, HCC4006, Lung
Protocol: as §1, §2, §3, §4, §5

HL-60 = conditions: Homo sapiens, 120 h, HL-60, Leukemia
Protocol: as §1, §2, §3, §4, §5

HT-3 = conditions: Homo sapiens, 120 h, HT-3, Cervix
Protocol: as §1, §2, §3, §4, §5

HUH-7 = conditions: Homo sapiens, 120 h, HUH-7, Liver
Protocol: as §1, §2, §3, §4, §5

Hep G2 = conditions: Homo sapiens, HepG2, 120 h, Hep G2, Liver
Protocol: as §1, §2, §3, §4, §5

KYSE-150 = conditions: Homo sapiens, 120 h, KYSE-150, Oesophagus
Protocol: as §1, §2, §3, §4, §5

KYSE-270 = conditions: Homo sapiens, 120 h, KYSE-270, Oesophagus
Protocol: as §1, §2, §3, §4, §5

MCF7 = conditions: Homo sapiens, 120 h, MCF7, Breast
Protocol: as §1, §2, §3, §4, §5

MKN-1 = conditions: Homo sapiens, 120 h, MKN-1, Stomach/Gastric
Protocol: as §1, §2, §3, §4, §5

MOLM-13 = conditions: Homo sapiens, 120 h, MOLM-13, Leukemia
Protocol: as §1, §2, §3, §4, §5

MOLT-4 = conditions: Homo sapiens, 120 h, MOLT-4, Leukemia
Protocol: as §1, §2, §3, §4, §5

MS751 = conditions: Homo sapiens, 120 h, MS751, Cervix
Protocol: as §1, §2, §3, §4, §5

OVCAR-4 = conditions: Homo sapiens, 120 h, OVCAR-4, Ovary
Protocol: as §1, §2, §3, §4, §5

PC-3 = conditions: Homo sapiens, 120 h, PC-3, Prostate
Protocol: as §1, §2, §3, §4, §5

Raji = conditions: Homo sapiens, 120 h, Lymphoma
Protocol: as §1, §2, §3, §4, §5

Ramos = conditions: Homo sapiens, 120 h, Lymphoma
Protocol: as §1, §2, §3, §4, §5

SK-MEL5 = conditions: Homo sapiens, SK-MEL-5, 120 h, SK-MEL5, Skin
Protocol: as §1, §2, §3, §4, §5

SW480 = conditions: Homo sapiens, 120 h, SW480, Colorectal
Protocol: as §1, §2, §3, §4, §5

U937 = conditions: Homo sapiens, U-937, 120 h, U937, Leukemia
Protocol: as §1, §2, §3, §4, §5

WM-266-4 = conditions: Homo sapiens, 120 h, WM-266-4, Skin
Protocol: as §1, §2, §3, §4, §5

CC(C)C[C@@H]1NCCN([C@@H](CC(C)C)C(=O)N2CCC3(C[C@@H]2C)OCC(CN2CCCC2)CO3)C1=O (stereo partly drawn) [Compound 258, (3S)-1-[(2S)-4-methyl-1-oxo-1-[(3s,6s,8S)-8-methyl-3-(pyrrolidin-1-ylmethyl)-1,5-dioxa-9-azaspiro[5.5]undec-an-9-yl]pentan-2-yl]-3-(2-methylpropyl)piper-azin-2-one (^≠), isomer Z]
GI50 (786-O): 28 nM | GI50 (A549): 10 nM | GI50 (AU565): 3 nM | GI50 (BT-20): 15 nM | GI50 (BT474): 72 nM | GI50 (Caco-2): 10 nM | GI50 (Caki 2): 14 nM | GI50 (Daudi): 80 nM | GI50 (Granta-519): 38 nM | GI50 (H4): 11 nM | GI50 (HCC4006): 8 nM | GI50 (HL-60): 5 nM | GI50 (HT-3): 330 nM | GI50 (HUH-7): 10 nM | GI50 (Hep G2): 6 nM | GI50 (KYSE-150): 11 nM | GI50 (KYSE-270): 44 nM | GI50 (MCF7): 55 nM | GI50 (MKN-1): 2 nM | GI50 (MOLM-13): 4 nM | GI50 (MOLT-4): 9 nM | GI50 (MS751): 51 nM | GI50 (OVCAR-4): 12 nM | GI50 (PC-3): 13 nM | GI50 (Raji): 28 nM | GI50 (Ramos): 27 nM | GI50 (SK-MEL5): 51 nM | GI50 (SW480): 22 nM | GI50 (U937): 22 nM | GI50 (WM-266-4): 41 nM
